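Assay format: 96-well plates, 48-hour exposure. GI50 marks 50% less growth. TGI: concentration producing complete growth inhibition.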
Assays:
Assay in all cases: inhibition of tumour cell growth, NCI panel, 48 h
LOX IMVI melanoma = tested on: LOX IMVI melanoma
ACHN renal = tested on: ACHN renal
NCI-H23 lung = tested on: NCI-H23 lung
UACC-257 melanoma = tested on: UACC-257 melanoma
MALME-3M melanoma = tested on: MALME-3M melanoma
UO-31 renal = tested on: UO-31 renal
HT29 colon = tested on: HT29 colon
OVCAR-8 ovarian = tested on: OVCAR-8 ovarian
M14 melanoma = tested on: M14 melanoma
HCT-116 colon = tested on: HCT-116 colon

| SMILES | TGI (LOX IMVI melanoma) | TGI (ACHN renal) | TGI (NCI-H23 lung) | TGI (UACC-257 melanoma) | TGI (MALME-3M melanoma) | TGI (UO-31 renal) | TGI (HT29 colon) | TGI (OVCAR-8 ovarian) | TGI (M14 melanoma) | TGI (HCT-116 colon) | GI50 (LOX IMVI melanoma) | GI50 (ACHN renal) | GI50 (NCI-H23 lung) | GI50 (UACC-257 melanoma) | GI50 (MALME-3M melanoma) | GI50 (UO-31 renal) | GI50 (HT29 colon) | GI50 (OVCAR-8 ovarian) | GI50 (M14 melanoma) | GI50 (HCT-116 colon) |
| --- | --- | --- | --- | --- | --- | --- | --- | --- | --- | --- | --- | --- | --- | --- | --- | --- | --- | --- | --- | --- |
| Cc1ccc(NC(=O)CC/C(CC(=O)C(C)(C)C)=N/NC(=O)c2cc3ccccc3cc2O)cc1C | 62.9 µM | > 100 µM | 47.6 µM | > 100 µM | > 100 µM | > 100 µM | > 100 µM | > 100 µM | 96 µM | > 100 µM |  |  |  |  |  |  |  |  |  |  |
| CCC12CCC[C@@]13C=C[C@H](O3)C(C)(C)C2=O (stereo partly drawn) | > 100 µM | > 100 µM | > 100 µM | > 100 µM | > 100 µM | > 100 µM | > 100 µM | > 100 µM | > 100 µM | > 100 µM |  |  |  |  |  |  |  |  |  |  |
| O=C1c2ccccc2-c2c1c1ccccc1c(=O)n2CCCNCCNCCCn1c2c(c3ccccc3c1=O)C(=O)c1ccccc1-2 | 0.355 µM | 1.31 µM | 2.57 µM | 3.47 µM | 2.27 µM |  |  | 1.66 µM | 1.93 µM | 0.163 µM | < 0.01 µM | < 0.01 µM | 0.508 µM | 1.24 µM | 0.681 µM | 0.342 µM | < 0.01 µM | < 0.01 µM | 0.288 µM | < 0.01 µM |

Reference: PubChem BioAssay (NCI)
